Nine molecules from PubChem BioAssay (NCI) can be followed below.

As usually defined, the GI50 is the concentration at which growth is held to half of that of the control. One may read the TGI as the concentration giving total growth inhibition. A higher TGI goes with lower sensitivity of the cells.

Values joined by “and” are separate entries in the source; they are usually repeats but may differ in a detail not shown here. Equal entries are not always repeated.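 These data come from cells grown in 96-well plates and exposed to compound for 48 hours at five concentrations. GI50: concentration for 50% inhibition of growth. TGI denotes the concentration required for complete inhibition of growth.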

Test in all cases: DTP human tumour cell line panel, 48 h
The subject of test [1] is HT29 colon.
The test system of test [2] is NCI-H522 lung.
The test system of test [3] is A549 NSCLC.
For test [4], the system named is NCI-H460 lung.
Test [5] relates to M14 melanoma.
Test [6] deals with PC-3 prostate.
For test [7], the system named is LOX IMVI melanoma.
Test [8] has as its system EKVX NSCLC.
Test [9] has as its system OVCAR-5 ovarian.
Test [10] deals with IGROV1 ovarian.

Take `CC(C)(C)OC(=O)NCCCCCCCCCCCCn1c2c(c3ccccc3c1=O)C(=O)c1ccccc1-2`: the GI50 in test [1] was greater than 100 µM; in test [2] it was 45 µM; in [3], greater than 100 µM; in test [4] it was greater than 100 µM; in test [5], greater than 100 µM; in [6] it was greater than 100 µM. The GI50 in test [7] is greater than 100 µM; in [8] it was 85.7 µM; in test [9], 75.9 µM. Moreover, the TGI in test [1], in [2], in [3], in test [4], in test [5] and in test [6] was greater than 100 µM throughout. The TGI in [7], in test [8] and in [9] was greater than 100 µM each time.
Consider `BrCc1ccc2ccc3ccc(CBr)nc3c2n1`, for which the TGI is 4.61 µM in [1]; 34.7 µM in test [3]; 20.2 µM in test [4]; 8.79 µM in test [5]; 10.8 µM in test [10]; 5.75 µM in test [6]. The TGI amounted to 3.21 µM in test [7], 22.6 µM in [8] and 27.1 µM in test [9].
For the molecule `COc1c(OC2OC(C)C(O)C(O)C2O)c(OC)c2oc(-c3ccc(O)cc3)cc(=O)c2c1O` (stereo not drawn), the GI50 was 30 µM in test [1]; 24.2 µM in [2]; 32.3 µM in [3]; 27.7 µM in [4]; 18.1 µM in [10]; 34.8 µM in test [6]. Besides, the GI50 was 27.9 µM in test [7], 38.4 µM in [8] and greater than 100 µM in test [9]. Further, the TGI is greater than 100 µM in test [1]; 64.5 µM in test [2]; greater than 100 µM in test [3]; 81.4 µM in test [4]; 92.2 µM in [10]; greater than 100 µM in test [6]. The TGI in test [7], in [8] and in [9] was greater than 100 µM throughout.
Regarding `N#C/C(=C/C=C/c1cccc(Cl)c1)S(=O)c1ccccc1` (stereo not drawn), the GI50 was 0.251 µM in test [2]; 1.21 µM in [3]; 0.474 µM in [4]; 1.1 µM in test [5]; 0.399 µM in [10]; 0.25 µM in [6]. The GI50 was 0.175 µM in test [7], 0.803 µM in test [8] and 0.391 µM in test [9]. Moreover, the TGI in [2] amounted to 0.804 µM; in test [3], 3.12 µM; in test [4], 2.51 µM; in test [5], 2.89 µM; in test [10], 1.71 µM; in test [6], 0.867 µM. Further, the TGI came out at 0.343 µM in [7], 2.23 µM in test [8] and 1.7 µM in [9].
On to `CN(CCOc1ccc(NS(C)(=O)=O)cc1)CCc1ccc(NS(C)(=O)=O)cc1`, for which the GI50 in test [1], in test [2], in test [3], in test [4], in test [5] and in test [10] was greater than 100 µM throughout. In addition, the GI50 in [6], in test [7] and in test [9] was greater than 100 µM each time. The TGI in [1], in test [2], in test [3], in test [4], in test [5] and in test [10] was greater than 100 µM throughout. Besides, the TGI in test [6], in [7] and in test [9] was greater than 100 µM in each case.
For `O=C(O)C(Cc1ccccc1)N1C(=O)/C(=C/C(Cl)=C/c2ccc([N+](=O)[O-])cc2)SC1=S` (stereo not drawn), the GI50 in test [1] is 2.84 µM; in [2], 1.72 µM; in test [3], 3.46 µM; in test [6], 2.53 µM; in test [7], 1.64 µM; in test [8], 2.59 µM. Further, the GI50 in [9] was 2.82 µM. Also, the TGI in test [1] was 8.47 µM; in [2], 4.47 µM; in test [3] it was greater than 100 µM; in [6], 7.98 µM; in test [7] it was 3.26 µM; in [8] it was 7.29 µM. This molecule displayed a TGI in test [9] of 7.9 µM.
With `COc1cc(C=NCC(=O)CSC(c2ccccc2)c2ccccc2)ccc1O`, the GI50 in test [1] was 15.3 µM; in [3], 10.7 µM; in [4], 20.1 µM; in [5], 13.2 µM; in [6], 9.26 µM; in test [7], 10.5 µM. The GI50 in [8] is 14.3 µM; in test [9], 16.4 µM. Moreover, the TGI was 28.6 µM in test [1]; 26 µM in test [3]; 56.2 µM in [4]; 25.9 µM in test [5]; 28.2 µM in test [6]; 23.5 µM in test [7]. Also, the TGI in test [8] is 50.7 µM; in [9] it was 30.4 µM.
Take `OC(Cc1cccc2ccccc12)CN1CCC(c2ccccc2)CC1` (stereo not drawn): the TGI was found to be 25.8 µM in test [1]; 21.9 µM in test [2]; 29.9 µM in test [3]; 28.4 µM in test [4]; 28.7 µM in [5]; 30.5 µM in test [6]. Besides, the TGI was determined as 29.5 µM in test [7], 27.1 µM in [8] and 27.7 µM in [9].
In the case of `CCCC(=O)Nc1cc(/C=C/C(=O)N2C[C@@H]3C[C@]34C2=CC(=O)c2[nH]cc(C)c24)n(C)c1`, the TGI in test [1] is 2.77 µM; in [2], 0.219 µM and 0.141 µM; in test [4] it was 2.51 µM and 0.394 µM; in test [5], 1.55 µM and 0.22 µM; in [10] it was 25 µM; in [6], 5.7 µM and 0.625 µM. The GI50 in test [2] is 0.0287 µM; in [4], 0.053 µM; in test [5], 0.0672 µM; in test [6], 0.125 µM; in [7], 0.0112 µM; in test [8] it was 0.172 µM. For the same molecule, in test [9], the GI50 is 0.142 µM.
